# Data taken from paper PMC8113758, “Functional Characterization of Sex Pheromone Neurons and Receptors in the Armyworm, Mythimna separata (Walker)” (Frontiers in Neuroanatomy, 2021).
# Key:
# Test in all cases: two-electrode voltage clamp, Xenopus oocytes, dose-response
# Format in all cases: cell-based, Mythimna separata
# MsepPR1 = test system: T1, MsepPR1
# T1 construct: full-length; with MsepOrco
# MsepPR5 = test system: T2, MsepPR5
# T2 construct: full-length; with MsepOrco
# MsepPR6 = test system: T3, MsepPR6
# T3 construct: full-length; with MsepOrco
SMILES,EC50 (MsepPR1) [µM],EC50 (MsepPR5) [µM],EC50 (MsepPR6) [µM]
"CCCC/C=C\CCCCCCCC=O [Z9–14:Ald, (Z)-9-tetradecenal]",49,30.4,
"CCCC/C=C\CCCCCCCCOC(C)=O [Z9–14:OAc, (Z)-9-tetradecen-1-yl acetate]",,,0.746
